The values that follow come from publication PMC7594079, “Insights into the Function and Evolution of Taste 1 Receptor Gene Family in the Carnivore Fish Gilthead Seabream (Sparus aurata)” (International Journal of Molecular Sciences, 2020).

Each structure is given as a SMILES string.

What all share (assay type): cell-based
The target in one experiment is T1, saT1R2a/R3 (Sparus aurata, UniProt A0A671TK95+A0A671VZB3).
T1 sequence (A0A671TK95 20-825): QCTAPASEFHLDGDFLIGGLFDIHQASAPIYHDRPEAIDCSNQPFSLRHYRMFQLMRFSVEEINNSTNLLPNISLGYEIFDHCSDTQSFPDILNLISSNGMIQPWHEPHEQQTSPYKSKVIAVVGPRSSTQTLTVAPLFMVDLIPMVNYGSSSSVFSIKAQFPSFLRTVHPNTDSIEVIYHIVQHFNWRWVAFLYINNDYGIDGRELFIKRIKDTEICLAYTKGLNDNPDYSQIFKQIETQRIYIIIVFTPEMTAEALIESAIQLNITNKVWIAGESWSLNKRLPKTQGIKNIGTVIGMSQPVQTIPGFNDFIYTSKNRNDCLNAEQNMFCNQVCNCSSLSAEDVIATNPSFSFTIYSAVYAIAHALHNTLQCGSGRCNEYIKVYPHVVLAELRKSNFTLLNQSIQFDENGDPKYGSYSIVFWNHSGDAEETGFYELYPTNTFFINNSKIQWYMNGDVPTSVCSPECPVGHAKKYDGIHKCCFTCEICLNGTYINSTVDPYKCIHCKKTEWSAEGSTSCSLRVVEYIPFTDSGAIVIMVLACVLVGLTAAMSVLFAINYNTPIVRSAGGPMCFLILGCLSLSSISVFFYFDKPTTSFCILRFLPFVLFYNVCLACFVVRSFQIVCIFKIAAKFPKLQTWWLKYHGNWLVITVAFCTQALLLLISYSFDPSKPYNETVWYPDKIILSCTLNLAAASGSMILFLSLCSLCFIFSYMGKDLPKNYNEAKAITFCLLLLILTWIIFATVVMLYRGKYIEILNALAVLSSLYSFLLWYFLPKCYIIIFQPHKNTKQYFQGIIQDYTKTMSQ
T1 sequence (A0A671VZB3 24-860): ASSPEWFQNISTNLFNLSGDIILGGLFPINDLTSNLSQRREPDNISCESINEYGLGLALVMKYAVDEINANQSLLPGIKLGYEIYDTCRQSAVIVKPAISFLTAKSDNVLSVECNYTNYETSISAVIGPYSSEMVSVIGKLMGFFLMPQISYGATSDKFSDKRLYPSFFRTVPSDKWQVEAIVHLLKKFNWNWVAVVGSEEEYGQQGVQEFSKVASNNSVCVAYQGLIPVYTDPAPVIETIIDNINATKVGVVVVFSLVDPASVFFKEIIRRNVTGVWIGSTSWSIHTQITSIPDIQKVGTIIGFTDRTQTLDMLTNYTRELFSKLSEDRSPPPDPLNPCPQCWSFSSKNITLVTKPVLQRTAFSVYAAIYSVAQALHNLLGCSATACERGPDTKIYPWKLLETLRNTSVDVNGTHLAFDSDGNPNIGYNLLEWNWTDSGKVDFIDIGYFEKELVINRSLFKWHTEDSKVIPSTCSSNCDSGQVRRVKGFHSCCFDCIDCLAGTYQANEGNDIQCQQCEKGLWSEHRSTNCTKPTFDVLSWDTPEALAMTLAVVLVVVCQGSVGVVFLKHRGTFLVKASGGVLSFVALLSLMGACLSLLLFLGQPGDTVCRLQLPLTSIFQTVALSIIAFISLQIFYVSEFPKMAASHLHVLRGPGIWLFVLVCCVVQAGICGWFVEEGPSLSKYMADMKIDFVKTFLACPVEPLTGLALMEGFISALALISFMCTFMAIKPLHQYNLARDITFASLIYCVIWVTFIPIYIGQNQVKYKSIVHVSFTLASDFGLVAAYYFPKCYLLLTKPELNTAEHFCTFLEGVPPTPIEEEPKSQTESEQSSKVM
Nature of the experiment: saT1R2a/R3 heterodimer transiently transfected in stable pGL3-NFAT-luc-HEK293 (Cl.3) cells, luciferase reporter. The note with it: saT1R2a/R3; tested 1–500 mM. The source says:
(§1) Figure 6 Amino acid Log-dose response curves of activation in heterologous co-transfected (Cl.3) cells with saT1R1/3 (green dots), saT1R2a/3 (red squares) and saT1R2b/3 (black triangles) heterodimers. Evaluation of L-AA responses was based on the RLU mean ± SEM of four independent determinations normalized to the mean response of the same transfections stimulated with reduced assay medium (Basal Medium Eagle w/o L-glutamate (BME) + 1% FBS), and expressed as the percentage relative to basal levels (BL).
(§2) HEK293 cells were cultured in standard medium DMEM (Gibco, Thermo Fisher, Saint Louis, MO, USA) containing 10% FBS, penicillin (100 U/mL) and streptomycin ([…]) at 37 °C, with a humidified atmosphere at 5% CO2. pGL3-NFAT-luc-HEK293 stable clones were generated by co-transfections of pGL3-NFAT-luc and tgCMV/HyTK plasmids (50:1), the latter harboring the hygromycin phosphotransferase gene, using Lipofectamine LTX according to supplier’s protocols (Thermo Fisher, Saint Louis, MO, USA). Initially, HEK293 cells were selected using DMEM containing 400 μg/mL hygromycin B (Sigma, Darmstadt, Germany) in 24-well plates for two weeks; 24 colonies were further grown out in 96-well plates under reduced hygromycin selection (200 µg/mL) for three weeks. Potentially resistant NFAT-luc-HEK293 clones (n = 22) were validated after incubation in assay medium (DMEM + 1% FBS) containing PMA or Ionomycin (Sigma, Darmstadt, Germany) for 18 h (triplicates, 50,000 cells/well). Luciferase activity was quantified with ONE-Glo™ EX Reagent Kit (Promega, Madison, WI, USA) using a 96-microplate TECAN reader (Trading AG, Switzerland).
(§3) saT1Rs (saT1R1, saT1R2a, saT1R2b saT1R3) and saGαi1-2 genes were RT-PCR amplified using 5’ and 3’ flanking primers carrying HindIII and XhoI restriction sites, respectively. Gel-purified fragments were cloned into pGEM-T Easy vectors, re-sequenced, digested and subcloned into pcDNA™3 (Invitrogen, Carlsbad, CA, USA). Effective saT1R cloning into pcDNA™3 was further verified by HindIII/XhoI digestion. Transient co-transfections were done in 6-well plates (confluence ~70–80%) using 100 μL of reduced serum medium (Opti-MEM, Gibco, Thermo Fisher, Saint Louis, MO, USA) containing 150 ng of each selected pcDNA™3 construct, 1:10 charge ratio of Enhanced Green Fluorescent expressing construct (EGFP; positive control), and pBluescript II SK (+) vector DNA (Addgene, Watertown, MA, USA) up to 1 µg of totally transfected DNA. Following 24 h incubation, cells were washed with fresh standard medium and plated in polylysine treated plates for additional 24 h. Cells were then stimulated with L-AAs and sugar compounds for 18 h in a reduced assay medium (BME w/o L-glutamate; Gibco, Thermo Fisher, Saint Louis, MO, USA) + 1% FBS), to prevent unspecific Ca^2+/NFAT signaling activation and potential saT1R desensitization. All L-AAs and sugars used for in vitro experiments were obtained from Merck KGaA (Darmstadt, Germany).

The target of a further experiment is T2, saT1R2b/R3 (Sparus aurata, UniProt A0A671TG56+A0A671VZB3).
T2 sequence (A0A671TG56 20-821): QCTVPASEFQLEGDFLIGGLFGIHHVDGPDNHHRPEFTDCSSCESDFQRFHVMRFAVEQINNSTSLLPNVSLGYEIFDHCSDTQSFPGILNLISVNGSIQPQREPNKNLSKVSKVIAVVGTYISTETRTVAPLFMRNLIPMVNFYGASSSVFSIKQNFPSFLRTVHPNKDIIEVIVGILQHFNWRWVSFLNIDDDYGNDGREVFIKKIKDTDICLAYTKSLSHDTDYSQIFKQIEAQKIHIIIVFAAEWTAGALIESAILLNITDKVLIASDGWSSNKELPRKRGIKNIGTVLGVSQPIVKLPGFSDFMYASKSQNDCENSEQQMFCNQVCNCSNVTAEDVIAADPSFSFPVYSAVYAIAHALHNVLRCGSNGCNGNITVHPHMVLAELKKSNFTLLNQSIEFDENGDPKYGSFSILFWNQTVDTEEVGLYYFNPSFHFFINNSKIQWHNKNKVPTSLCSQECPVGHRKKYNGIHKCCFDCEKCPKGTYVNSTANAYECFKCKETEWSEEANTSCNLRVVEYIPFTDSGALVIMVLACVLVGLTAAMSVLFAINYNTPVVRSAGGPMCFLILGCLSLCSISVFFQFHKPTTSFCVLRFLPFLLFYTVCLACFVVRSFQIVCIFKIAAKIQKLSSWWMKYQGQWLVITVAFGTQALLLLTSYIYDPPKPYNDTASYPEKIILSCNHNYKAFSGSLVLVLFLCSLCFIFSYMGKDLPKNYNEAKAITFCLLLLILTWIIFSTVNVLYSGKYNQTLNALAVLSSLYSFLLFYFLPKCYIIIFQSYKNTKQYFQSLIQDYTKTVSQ
T2 sequence (A0A671VZB3 24-860): T1 sequence (A0A671VZB3 24-860)
Nature of the experiment: saT1R2b/R3 heterodimer transiently transfected in stable pGL3-NFAT-luc-HEK293 (Cl.3) cells, luciferase reporter. The note with it: saT1R2b/R3; tested 1–500 mM.
Source text: as §1, §2, §3
For orientation: In a reporter assay the amount or activity of a reporter protein is the signal.

The subject of experiment [1] is pGL3-NFAT-luc reporter (Ca2+/NFAT signaling). Nature of the experiment: pGL3-NFAT-luc construct responsiveness in transiently transfected HEK293 cells. The note with it: 10-fold serial dilutions. The source says: The luciferase reporter system used in the present study is based on a pGL3-plasmid including three (N)uclear (F)actor of (A)ctivated T cells (NFAT)-responsive elements located upstream of an interleukin-2 (IL2) minimal promoter driving expression of the firefly luciferase reporter gene (pGL3-NFAT-luc plasmid; Addgene (Watertown, MA, USA), cat. number. 17870). To evaluate pGL3-NFAT-luc construct responsiveness, transiently transfected HEK293 cells were stimulated with Phorbol 12-myristate 13-acetate (PMA) and ionomycin, two compounds known to modulate NFAT signaling by mobilization of intracellular Ca^2+ storages.
Figure 4 Evaluation of pGL3-NFAT-luc construct responsiveness to 10-fold serial dilutions to PMA (A) and ionomycin (B) in transiently transfected HEK293 cells. RLU%: Relative Luminescence Unit percentage. […] BL (Basal Levels) = 100% RLU. Different lowercase letters (a,b) on top of bars indicate significant differences (p < 0.05) between concentrations, assessed by one-way ANOVA followed by Tukey’s Multiple Comparison Test (GraphPad Prism version 5.00 Software, La Jolla, CA, USA). […]

Take `OC[C@@H]1O[C@@H](O[C@@]2(CO)O[C@@H](CO)[C@H](O)[C@H]2O)[C@@H](O)[C@H](O)[C@H]1O` [L-Sucrose]: the “concentration with significant activation” value on saT1R2a/R3 and on saT1R2b/R3 was 100 mM throughout. `CCCCCCCCCCCCCC(=O)O[C@@H]1[C@@H](C)[C@@]2(O)[C@@H](C=C(CO)C[C@]3(O)C(=O)C(C)=C[C@@H]23)[C@@H]2C(C)(C)[C@]12OC(C)=O` [PMA, Phorbol 12-myristate 13-acetate]: the “luminescence response of pGL3-NFAT-luc construct” value in experiment [1] is “significant luminescence dose-response increases”. Same read-out and setting: for `C[C@H](CCC(=O)O)C[C@H](C)C[C@H](C)C(=O)/C=C(\O)[C@H](C)C[C@H](C)C/C=C/[C@@H](C)[C@@H](O)[C@@H](C)[C@@H](O)C[C@@H]1CC[C@@](C)([C@H]2CC[C@@](C)([C@@H](C)O)O2)O1` [ionomycin] the value was “significant luminescence dose-response increases”.
